Read-outs that look alike come from different tables or passages of the source.
Columns and labels:
[1] = test system: patients with all clinical forms of MS; settings: cited from earlier work
SP & PPMS forms = settings: summary of prior art; cited from earlier work
PPMS patients = settings: cited from earlier work
[2] = test system: patients with Secondary progressive MS; settings: cited from earlier work
[3] = test system: subjects with Secondary progressive MS with relapses; settings: vs placebo; cited from earlier work
[4] = test system: patients with RRMS, PRMS and SPMS with relapses; settings: 2 years follow-up, p=0.05; cited from earlier work
[5] = test system: patients with worsening RRMS or SPMS with relapses; settings: 24 months, 95% CI 0.17-0.44; p<0.001; cited from earlier work
progressive MS patients = settings: cited from earlier work
dendritic cells = settings: mice model; cited from earlier work
microglia = settings: cited from earlier work
EAE model = settings: prophylactic administration; cited from earlier work
[6] = many clinical studies; cited from earlier work
[7] = test system: MOG-immunized C57BL/6J mice (EAE); assay: EAE therapeutic treatment from chronic phase (day 15 post-immunization); format: in vivo
Experimental: […] […] As controls MOG-immunized C57BL/6J mice were injected with vehicle (PBS) daily. At day 21 p.i. mice were sacrificed. MOG-immunized mice treated with either PBS (A-C) or AG (B-D) were perfussed and 4% p-formaldehyde fixed. Toraxic spinal cords sections were dissected and analyzed for inflammatory infiltrate by hematoxylin-eosin staining (H&E) and for demyelination with luxol fast blue staining (LFB). Insets show higher magnification (20×).

[8] = test system: Jurkat cell line (lymphom of T cells); settings: through inhibition of NFAT and MAPK-Erk 1/2; cited from earlier work
[9] = test system: patients with progressive forms of Multiple Sclerosis; assay: Controlled, randomized, double-blinded human clinical trial of andrographolide; format: in vivo
Experimental: We have tested andrographolide in a controlled, randomized, double-blinded human clinical trial of andrographolide 140 mg orally administered twice per day (i.e., 280 mg per day) in patients with progressive forms of Multiple Sclerosis. The principle objective of that study was to determine efficacy, safety and tolerability of andrographolide in retarding the progression of brain atrophy. Secondary end-points included: delay in the disability capacity progression through the Expanded Disability Status Scale (EDSS) and Multiple Sclerosis Funcitonal Composite (MSFC) at 24 months compared to the baseline; delay in cognitive impairment by means of Paced Auditory Serial Addition Test (PASAT), Symbol Digit Modalities Test (SDMT) and depression (Beck) at 24 months compared to the baseline; quality of life Multiple Sclerosis Impact Scale (MSIS 29) and fatigue (Krupp) through parameters reported by the patients at 24 months compared to the baseline; Tolerability of andrographolide measured by Magnetic Resonance (MR) at 24 months compared to baseline; Number and volume of new lesions or larger size in T2 by MR at 24 months compared to the baseline; Number of new hipointense lesions in T1 or (gadolinium captive) by MR at 24 months compared to baseline; Delay in the retinal thinning measured by Optical Coherence Tomography (OCT) and visual field at 24 months compared to the baseline; and Safety of andrographolide at 24 months through the record of adverse effects in symptom diary and programmed interviews. The details of the study are described more completely in U.S. Provisional patent application Ser. No. 62/347,218 (filed 8 Jun. 2016), incorporated here by reference.
The numbers (x axis) on the figure are measurements 6: corresponds to 2 year treatment. There are still many patients that need to complete the 2 year treatment. The data therefore show a lot of variance. […] The 9-HPT is a brief, standardized, quantitative test of upper extremity function. It is the second component of the MSFC to be administered at each visit. Both the dominant and non-dominant hands are tested twice. The patient is seated at a table with a small, shallow container holding nine pegs and a wood or plastic block containing nine empty holes. On a start command when a stopwatch is started, the patient picks up the nine pegs one at a time as quickly as possible, puts them in the nine holes, and, once they are in the holes, removes them again as quickly as possible one at a time, replacing them into the shallow container. The total time to complete the task is recorded. Two consecutive trials with the dominant hand are immediately followed by two consecutive trials with the non-dominant hand.
There are 3 components of the Multiple Sclerosis Functional Composite (MSFC) disease activity index: function of the legs, function of the arms and cognitive function. The corresponding tests are a 25 feet (7.6 m) walk; test of 9 holes and pin and the Paced Auditory Serial Addition test 3 (PASAT3). Multiple attempts will be made of each test in each visit. The MSFC score and the scores of the 3 sub-scales and the change from the basal values will be recorded in each visit
One measure of progressive MS disease severity is the Expanded Disability Status Scale (EDSS). EDSS is a scale to determine the neurological disability in MS and is used to confirm progression of the disease. It consists of a system of two parts. The first part measures eight functional systems (FS). The second part measures disability on a scale of […], zero being no disability and 10 being death due to MS.
The Nine Hole Pin Test (9HPT) is a component of the MS Functional Composite (MSFC) score. 9HPT is a timed test measuring the time (seconds) required to insert each of nine pins into nine holes in a plank. The test is done on each of the right and left arms. The test measures eye-hand coordination and fine muscle control. […]

MS participants = settings: cited from earlier work
MOG-immunized mice (EAE) = assay: EAE prevention: treatment before MOG immunization, daily clinical score; format: in vivo; settings: MOG-immunized one week after treatment, FIG. 1B
Experimental: (§1) (A) Lymph node cell suspensions obtained from C57BL/6 and BALB/c mice were co-cultured with increasing concentrations of IB-MS for 72 h. After this time, supernatants were harvested and analyzed for IL-2 release by ELISA assay (circles) and T cell proliferation (squares) was determined by Cell Titer assay. (B) Mice treated with vehicle (solid circles) or andrographolide (empty circles) were MOG-immunized one week later and clinical score determined daily.

[10] = test system: Lymph node cell suspensions obtained from C57BL/6 and BALB/c mice; assay: Lymph node cell co-culture, IL-2 release (ELISA) and T cell proliferation (Cell Titer); format: cell-based; settings: increasing concentrations, 72 h, FIG. 1A
Experimental: as §1

SPMS and PPMS patients = settings: cited from earlier work
patients with PPMS = settings: 95% confidence interval 0.71-1.07; p=0.1753; non-significant delay; cited from earlier work
[11] = 4 mg/kg daily, day 15 to day 20 post-immunization, FIG. 3
[12] = twelve months of treatment, FIG. 7

## Cn1cnc([N+](=O)[O-])c1Sc1ncnc2nc[nH]c12 [azathioprine, Azathioprine]
[1]; first year of treatment, 95% CI=5% to 33%
  number of patients who had relapses, relative risk reduction [RRR]: 20%
[1]; three years follow-up, 95% CI=7% to 27%
  number of patients who had relapses, relative risk reduction [RRR]: 18%
[1]; three years' follow-up, 95% CI=7% to 64%, 87 patients
  number of patients who progressed, RRR: 42%
[1]; two years, 95% CI=12% to 33%
  number of patients who had relapses, relative risk reduction [RRR]: 23%
SP & PPMS forms
  slowing down / reduction of disability progression in progressive MS: do not show a reduction in the progression of disability

## Rituximab
PPMS patients; baseline to week 96, p<0.001
  increase in T2 lesion volume: less
PPMS patients; baseline to week 96, p=0.62
  brain volume change: similar
PPMS patients; placebo 38.5%, p=0.14, not significant
  confirmed disease progression, 96-week rate: 30.2%
PPMS patients; vs placebo
  adverse events: comparable between groups

## Interferon beta-1b [IFNB-1b]
SP & PPMS forms
  slowing down / reduction of disability progression in progressive MS: failed to demonstrate efficacy
[2]; p=0.007
  time to confirmed 1.0 point progression on the Expanded Disability Status Scale (EDSS): delayed
[2]; vs placebo
  progression of 2.0 EDSS point, lower: 27%
[3]
  relapse and MRI-related outcomes: significant benefit
  time to confirmed progression of disability: no treatment benefit

## O=C1c2c(O)ccc(O)c2C(=O)c2c(NCCNCCO)ccc(NCCNCCO)c21 [mitoxantrone, Mitoxantrone]
[4]
  proportion of patients with 6-months confirmed progression of disability (Odds Ratios): 0.3
[5]
  different clinical measures (difference vs placebo): 0.3
SP & PPMS forms
  slowing down / reduction of disability progression in progressive MS: do not show a reduction in the progression of disability

## CN(Cc1cnc2nc(N)nc(N)c2n1)c1ccc(C(=O)N[C@@H](CCC(=O)O)C(=O)O)cc1 [methotrexate, Methotrexate]
Progressive MS patients; in vivo
  major side effects: no major side effects
Progressive MS patients; placebo 89.7%
  minor side effects reported: 87.1%
Progressive MS patients; vs placebo
  sustained EDSS progression and number of relapses: non-significant reduction
  time to first relapse: no difference in time to first relapse
SP & PPMS forms
  slowing down / reduction of disability progression in progressive MS: do not show a reduction in the progression of disability

## C=C1CC[C@@H]2[C@](C)(CO)[C@H](O)CC[C@@]2(C)[C@@H]1C/C=C1/C(=O)OC[C@H]1O [andrographolide, Andrographolide]
Dendritic cells
  maturation of dendritic cells and capacity to present antigens to T cells: decreases
microglia
  reactive oxygen species, TNF-α, nitric oxide and prostaglandins E2: reduces
EAE model
  development of EAE: prevents the development Of EAE
[6]
  tolerability and safety: well tolerated and safe
[7]; [11]
  demyelination in spinal cord (LFB): reduced
  inflammatory infiltrate in spinal cord (H&E): reduced
[8]
  process of activation of Jurkat cell line: decreases
[9]; 12 months of treatment
  efficacy, interim results: statistically-significant efficacy
[9]; 12 months of treatment vs placebo, FIG. 6
  Expanded Disability Status Scale (EDSS): an improvement viz placebo which becomes statistically-significant by nine months
[9]; preliminary, 2 years vs day 0, FIG. 11
  MSIS 29 scale scores: maintain or slightly improve their scores
[9]; treatment group (a), after 2 years, from 80 at day 0, FIG. 11
  MSIS 29 scale: 90 percentage
[9]; [12]
  Nine Hole Pin Test, left hand (9HPT-L), time to complete: the improvement becomes statistically significant almost immediately
  Nine Hole Pin Test, right hand (9HPT-R), time to complete: improvement becomes statistically significant by twelve months of treatment
[9]; up to 2 year treatment, FIG. 10
  9-HPT (upper extremity function): the treated patients are more skilled and more quickly complete the task
[9]; vs placebo, twelve months, preliminary data, FIG. 8
  25-Feet Walk Test (25 FWT), time to complete: improvement becomes statistically significant immediately on commencement of treatment

## O=P1(N(CCCl)CCCl)NCCCO1 (stereo not drawn) [cyclophosphamide, Cyclophosphamide]
MS participants; 12, 18, 24 months
  long-term clinical disability progression (evolution to a next step of EDSS score): did not prevent
MS participants; 12 months, 95% confidence interval −0.25 to −0.17
  mean change in disability (effect size): −0.21
MS participants; 18 months, 95% confidence interval −0.24 to −0.14
  mean change in disability (effect size): −0,19
MS participants; 24 months, CI 0.07 to 0.21, favoured the control group
  mean change in disability (effect size): 0.14
SP & PPMS forms
  slowing down / reduction of disability progression in progressive MS: do not show a reduction in the progression of disability

## Andrographolide
MOG-immunized mice (EAE)
  EAE clinical score: prevents EAE
[10]
  T cell activation (IL-2 release, T cell proliferation): interferes with T cell activation
[7]; 4 mg/kg every second day, day 15 to day 30 post-immunization, FIG. 2
  effect in EAE: has a therapeutic effect in EAE

## natalizumab
SP & PPMS forms
  slowing down / reduction of disability progression in progressive MS: no effect on the progressive forms

## Glatiramer Acetate
SPMS and PPMS patients; in vivo
  local injection-site reactions: up to a half of patients
  major toxicity: No major toxicity
SPMS and PPMS patients; meta-analysis
  benefit in SPMS and PPMS patients: No benefit
Patients with PPMS
  time to sustained accumulated disability (hazard ratio): 0.87
SP & PPMS forms
  slowing down / reduction of disability progression in progressive MS: failed to demonstrate efficacy

Reference: patent US10722492B2, “Andrographolide treats progressive forms of multiple sclerosis” (INNOBIOSCIENCES, LLC, priority 2016, dated 2020)
